The record followed here is patent publication US9156811B2 (priority 2008, dated 2015).

Where only a bound is given, the exact number is not on record here.

The subject of the assay is Trypanosome (T. brucei brucei). Description: In-vitro antitrypanosomal efficacy assay (cell growth, resazurin). In kind it is cell-based. Conditions: T. brucei cell growth. Background: Alamar Blue is a resazurin reagent that responds to reducing activity.
Protocol: To column 12, 200 μl media was added to provide a no cells control. Plates were then incubated at 37° C. in an atmosphere of 5% CO2 for 69 hours, before the addition of 20 μl of 500 μM rezasurin solution, and a further incubation period of 4 hours. […] Concentration effect curves were fitted using non-linear regression using XLFit 4.2 and EC50 values determined.
Regarding `Cc1nn(C)c(C)c1N[S+](=O)([O-])c1ccc(N2CCC(NC3CCN(Cc4ccccc4)C3)CC2)nc1` (stereo not shown) [DDD86473], the “ED50 (μM) T. brucei” value is above 1 µM.
For `Cn1cc(N[S+](=O)([O-])c2ccc(-c3ccnc(N4CCNCC4)c3)cc2)cn1` [DDD86474, N-(1-Methyl-1H-pyrazol-4-yl)-4-(2-piperazin-1-yl-pyridin-4-yl)-benzenesulfonamide] the value was 0.65 µM; for `Cc1nn(C)cc1N[S+](=O)([O-])c1c(Cl)cc(-c2ccnc(N3CCNCC3)c2)cc1Cl` [DDD86475, 2,6-Dichloro-N-(1,3-dimethyl-1H-pyrazol-4-yl)-4-(2-piperazin-1-yl-pyridin-4-yl)-benzenesulfonamide], 0.003 µM.
For `Cc1nn(C)c(C)c1N[S+](=O)([O-])c1ccc(N2CCC(N3CCCCC3)C2)nc1` (stereo not shown) [DDD86477] the value was above 1 µM; for `Cn1cc(N[S+](=O)([O-])c2c(Cl)cc(-c3ccnc(N4CCNCC4)c3)cc2Cl)cn1` [DDD86478, 2,6-Dichloro-N-(1-methyl-1H-pyrazol-4-yl)-4-(2-piperazin-1-yl-pyridin-4-yl)-benzenesulfonamide], 0.24 µM.
On to `Cc1nn(C)c(C)c1N[S+](=O)([O-])c1ccc(-c2ccnc(N3CCNC(C)C3)c2)cc1` (stereo not shown) [DDD87748], for which the “ED50 (μM) T. brucei” value is 0.001 µM.
For `Cc1nn(C)c(C)c1N[S+](=O)([O-])c1ccc(-c2ccnc(N3CCCCC3)c2)cc1` [DDD87749, 4-(3,4,5,6-Tetrahydro-2H-[1,2′]bipyridinyl-4′-yl)-N-(1,3,5-trimethyl-1H-pyrazol-4-yl)-benzenesulfonamide] the value was 1.28 µM; for `Cc1nn(C)c(C)c1N[S+](=O)([O-])c1ccc(-c2cccc(CCO)c2)cc1` [DDD87751, 3′-(2-Hydroxy-ethyl)-biphenyl-4-sulfonic acid (1,3,5-trimethyl-1H-pyrazol-4-yl)-amide], above 1 µM; for `Cc1nn(C)c(C)c1N[S+](=O)([O-])c1ccc(-c2cccc(CN3CCNC(c4ccccc4)C3)c2)cc1` (stereo not shown) [DDD87754, 3′-(3-Phenyl-piperazin-1-ylmethyl)-biphenyl-4-sulfonic acid (1,3,5-trimethyl-1H-pyrazol-4-yl)-amide], 1.6 µM.
With `Cc1nn(C)c(C)c1N[S+](=O)([O-])c1ccc(N2CCCC(N3CCNCC3)C2)nc1` (stereo not shown) [DDD87757] the figure was 0.003 µM; with `CCN(CC)Cc1ccccc1-c1ccc([S+](=O)([O-])Nc2c(C)nn(C)c2C)cc1` [DDD87758, 2′-Diethylaminomethyl-biphenyl-4-sulfonic acid (1,3,5-trimethyl-1H-pyrazol-4-yl)-amide], above 1 µM.
`Cc1nn(C)c(C)c1NS(=O)(=O)c1ccc(-c2ccnc(N3CC(C)NC(C)C3)c2)cc1` (stereo not shown) [DDD87761, 4-[2-(3,5-Dimethyl-piperazin-1-yl)-pyridin-4-yl]-N-(1,3,5-trimethyl-1H-pyrazol-4-yl)-benzenesulfonamide]: the “ED50 (μM) T. brucei” value came to 0.02 µM.
With `Cc1nn(C)c(C)c1N[S+](=O)([O-])c1ccc(-c2ccccc2CN2CCN(C)CC2)cc1` [DDD87764, 2′-(4-Methyl-piperazin-1-ylmethyl)-biphenyl-4-sulfonic acid (1,3,5-trimethyl-1H-pyrazol-4-yl)-amide] the figure was above 1 µM.
With `Cc1nn(C)c(C)c1N[S+](=O)([O-])c1ccc(-c2cccc(CNCc3ccccc3)c2)cc1` [DDD87765, 3′-(Benzylamino-methyl)-biphenyl-4-sulfonic acid (1,3,5-trimethyl-1H-pyrazol-4-yl)-amide], the “ED50 (μM) T. brucei” value was above 1 µM.
With `Cc1nn(C)c(C)c1N(C)[S+](=O)([O-])c1ccc(Br)cc1` [DDD87766, 4-Bromo-N-methyl-N-(1,3,5-trimethyl-1H-pyrazol-4-yl)-benzenesulfonamide] the figure was above 1 µM.
On to `Cc1nn(C)c(C)c1N[S+](=O)([O-])c1ccc(-c2cccc(C3CCNCC3)c2)cc1` [DDD87768, 3′-Piperidin-4-yl-biphenyl-4-sulfonic acid (1,3,5-trimethyl-1H-pyrazol-4-yl)-amide], for which the “ED50 (μM) T. brucei” value was found to be 0.06 µM.
Take `Cc1nn(C)c(C)c1N[S+](=O)([O-])c1c(Cl)cc(CCCN2CCN(C)CC2)cc1Cl` [DDD87769, 2,6-Dichloro-4-[3-(4-methyl-piperazin-1-yl)-propyl]-N-(1,3,5-trimethyl-1H-pyrazol-4-yl)-benzenesulfonamide]: the “ED50 (μM) T. brucei” value came to 0.008 µM.
As to `Cc1ncccc1N[S+](=O)([O-])c1ccc(-c2ccnc(N3CCNCC3)c2)cc1` [DDD87994, N-(2-Methyl-pyridin-3-yl)-4-(2-piperazin-1-yl-pyridin-4-yl)-benzenesulfonamide], the “ED50 (μM) T. brucei” value was found to be 0.11 µM.
For `Cc1c(N[S+](=O)([O-])c2ccc(-c3ccnc(N4CCNCC4)c3)cc2)cnn1C` [DDD87995, N-(1,5-Dimethyl-1H-pyrazol-4-yl)-4-(2-piperazin-1-yl-pyridin-4-yl)-benzenesulfonamide] the value was 0.02 µM.
For `Cc1nn(C)c(C)c1N[S+](=O)([O-])c1ccc(C#CCN2CCN(C)CC2)cc1` [DDD87999, 4-[3-(4-Methyl-piperazin-1-yl)-prop-1-ynyl]-N-(1,3,5-trimethyl-1H-pyrazol-4-yl)-benzenesulfonamide] the value was above 1 µM.
Take `Cc1nn(C)c(C)c1N[S+](=O)([O-])c1ccc(NCCC2CCN(C)CC2)nc1` [DDD88000, 6-[2-(1-Methyl-piperidin-4-yl)-ethylamino]-pyridine-3-sulfonic acid (1,3,5-trimethyl-1H-pyrazol-4-yl)-amide]: the “ED50 (μM) T. brucei” value stood at 0.77 µM.
Regarding `Cc1ncccc1N[S+](=O)([O-])c1ccc(-c2cccc(C3CCNCC3)c2)cc1` [DDD88003, 3′-Piperidin-4-yl-biphenyl-4-sulfonic acid (2-methyl-pyridin-3-yl)-amide], the “ED50 (μM) T. brucei” value turned out to be 1.9 µM.
With `Cc1nn(C)c(C)c1N[S+](=O)([O-])c1cc(F)c(Br)cc1F` [DDD88004, 4-Bromo-3,6-difluoro-N-(1,3,5-trimethyl-1H-pyrazol-4-yl)-benzenesulfonamide] the figure was above 1 µM; with `Cc1nn(C)c(C)c1N[S+](=O)([O-])c1ccc(-c2cccc(CN(C)C)c2)cc1` [DDD88005, 3′-Dimethylaminomethyl-biphenyl-4-sulfonic acid (1,3,5-trimethyl-1H-pyrazol-4-yl)-amide], 0.1 µM; with `Cc1nn(C)c(C)c1N[S+](=O)([O-])c1c(Cl)cc(-c2cccc(CN3CCCC3)c2)cc1Cl` [DDD88009, 3,5-Dichloro-3′-pyrrolidin-1-ylmethyl-biphenyl-4-sulfonic acid (1,3,5-trimethyl-1H-pyrazol-4-yl)-amide], 0.10 µM.
As for `CCCOc1cc(CN2CCN(C)CC2)cc(-c2ccc([S+](=O)([O-])Nc3c(C)nn(C)c3C)cc2)c1` [DDD88187, 5′-(4-Methyl-piperazin-1-ylmethyl)-3′-propoxy-biphenyl-4-sulfonic acid (1,3,5-trimethyl-1H-pyrazol-4-yl)-amide], the “ED50 (μM) T. brucei” value came to 2.15 µM.
`Cc1noc(C)c1N[S+](=O)([O-])c1ccc(-c2cccc(C3CCNCC3)c2)cc1` [DDD88189, 3′-Piperidin-4-yl-biphenyl-4-sulfonic acid (3,5-dimethyl-isoxazol-4-yl)-amide]: the “ED50 (μM) T. brucei” value was above 1 µM.
Take `Cc1nn(C)c(C)c1N[S+](=O)([O-])c1ccc(CCCN2CCN(C)CC2)cc1` [DDD88191, 4-[3-(4-Methyl-piperazin-1-yl)-propyl]-N-(1,3,5-trimethyl-1H-pyrazol-4-yl)-benzenesulfonamide]: the “ED50 (μM) T. brucei” value worked out at 0.67 µM.
For `Cc1nn(C)c(C)c1N(C)[S+](=O)([O-])c1c(Cl)cc(-c2ccnc(N3CCNCC3)c2)cc1Cl` [DDD88193, 2,6-Dichloro-N-methyl-4-(2-piperazin-1-yl-pyridin-4-yl)-N-(1,3,5-trimethyl-1H-pyrazol-4-yl)-benzenesulfonamide] the value was 0.005 µM.
For `Cc1nn(C)c(C)c1N[S+](=O)([O-])c1ccc(-c2cc(CN3CCN(C)CC3)cc(OC(C)C)c2)cc1` [DDD88194, 3′-Isopropoxy-5′-(4-methyl-piperazin-1-ylmethyl)-biphenyl-4-sulfonic acid (1,3,5-trimethyl-1H-pyrazol-4-yl)-amide] the value was 2.0 µM; for `Cc1nn(C)c(C)c1N(C)[S+](=O)([O-])c1ccc(-c2cccc(CN3CCN(C)CC3)c2)cc1` [DDD88196, 3′-(4-Methyl-piperazin-1-ylmethyl)-biphenyl-4-sulfonic acid methyl-(1,3,5-trimethyl-1H-pyrazol-4-yl)-amide], 0.05 µM.
For `Cc1nn(C)c(CC(C)C)c1N[S+](=O)([O-])c1c(Cl)cc(Br)cc1Cl` [DDD88197, 4-Bromo-2,6-dichloro-N-(5-isobutyl-1,3-dimethyl-1H-pyrazol-4-yl)-benzenesulfonamide], the “ED50 (μM) T. brucei” value amounted to 45.9 µM.
With `Cc1c(N[S+](=O)([O-])c2c(Cl)cc(Br)cc2Cl)c(CC(C)C)nn1C` [DDD88198, 4-Bromo-2,6-dichloro-N-(3-isobutyl-1,5-dimethyl-1H-pyrazol-4-yl)-benzenesulfonamide] the figure was 2.3 µM; with `Cc1nn(C)c(C)c1N[S+](=O)([O-])c1c(F)cc(Br)cc1F` [DDD88317], above 10 µM; with `Cc1nn(C)c(C)c1N[S+](=O)([O-])c1ccc2nc(Cl)ccc2c1` [DDD88533], above 10 µM.
With `Cc1nn(C)c(C)c1N[S+](=O)([O-])c1ccc(-c2ccnc(N3CCNC(C(C)C)C3)c2)cc1` (stereo not shown) [DDD88549] the figure was 0.11 µM; with `Cc1nn(C)c(C)c1N[S+](=O)([O-])c1c(Cl)cc(CCCC2CCN(C)CC2)cc1Cl` [DDD88557], 0.002 µM; with `Cc1nn(C)c(C)c1N[S+](=O)([O-])c1ccc(CCCC2CCN(C)CC2)cc1` [DDD88559], 0.038 µM.
With `Cc1nn(C)c(C)c1N[S+](=O)([O-])c1ccc(CCCN2CCNCC2)cc1` [DDD88580] the figure was 1.13 µM; with `CCN(CC)Cc1cccc(-c2cc(Cl)c([S+](=O)([O-])N(C)c3c(C)nn(C)c3C)c(Cl)c2)c1` [DDD88641], 0.31 µM.
